Results as given in ChEMBL document CHEMBL5465560, “Selectivity Literature for EUbOPEN Chemogenomic Library” (2024).

What was measured:
[1] = target: Platelet-derived growth factor receptor beta (Homo sapiens, UniProt P09619); test: Selectivity interaction (Kinase panel (Invitrogen)) EUB0000639a PDGFRB; conditions: at 200 nM
[2] = target: T1, Phosphorylase b kinase gamma catalytic chain, liver/testis isoform (Homo sapiens) (UniProt P15735); test: Selectivity interaction (KinomeScan (DiscoverX)) EUB0000595a PHKG2; conditions: at 10 µM
T1 sequence (whole entry): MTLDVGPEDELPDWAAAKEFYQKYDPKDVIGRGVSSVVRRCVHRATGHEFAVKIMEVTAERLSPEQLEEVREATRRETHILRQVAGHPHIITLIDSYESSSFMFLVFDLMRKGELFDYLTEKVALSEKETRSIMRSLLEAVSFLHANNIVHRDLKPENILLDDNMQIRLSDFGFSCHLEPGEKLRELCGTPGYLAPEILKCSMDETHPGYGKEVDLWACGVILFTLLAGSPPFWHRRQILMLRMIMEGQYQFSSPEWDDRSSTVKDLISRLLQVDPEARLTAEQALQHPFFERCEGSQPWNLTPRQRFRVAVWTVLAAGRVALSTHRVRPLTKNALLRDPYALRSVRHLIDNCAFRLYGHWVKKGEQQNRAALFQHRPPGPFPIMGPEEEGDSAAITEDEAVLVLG

[3] = target: T2, Serine/threonine-protein kinase Nek2 (Homo sapiens) (UniProt P51955); test: Selectivity interaction (KinomeScan (DiscoverX)) EUB0000229b NEK2; conditions: at 10 µM
T2 sequence (whole entry): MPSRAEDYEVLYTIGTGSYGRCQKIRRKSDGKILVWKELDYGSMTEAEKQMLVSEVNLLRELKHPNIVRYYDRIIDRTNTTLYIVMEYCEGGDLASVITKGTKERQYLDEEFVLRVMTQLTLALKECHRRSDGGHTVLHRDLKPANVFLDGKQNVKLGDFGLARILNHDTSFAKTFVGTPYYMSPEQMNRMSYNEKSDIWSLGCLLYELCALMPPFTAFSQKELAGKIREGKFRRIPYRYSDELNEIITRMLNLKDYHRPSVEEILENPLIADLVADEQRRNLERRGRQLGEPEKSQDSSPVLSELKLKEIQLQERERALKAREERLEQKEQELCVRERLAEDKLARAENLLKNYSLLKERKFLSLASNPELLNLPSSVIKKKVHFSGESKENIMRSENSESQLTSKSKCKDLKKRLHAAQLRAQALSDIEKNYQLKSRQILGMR

Focal adhesion kinase 1 = Focal adhesion kinase 1 (Homo sapiens, UniProt Q05397); test: Selectivity interaction (KinomeScan (DiscoverX)) EUB0000229b PTK2; conditions: at 10 µM
Focal adhesion kinase 1, sequence (Q05397 2-1052 limits assumed): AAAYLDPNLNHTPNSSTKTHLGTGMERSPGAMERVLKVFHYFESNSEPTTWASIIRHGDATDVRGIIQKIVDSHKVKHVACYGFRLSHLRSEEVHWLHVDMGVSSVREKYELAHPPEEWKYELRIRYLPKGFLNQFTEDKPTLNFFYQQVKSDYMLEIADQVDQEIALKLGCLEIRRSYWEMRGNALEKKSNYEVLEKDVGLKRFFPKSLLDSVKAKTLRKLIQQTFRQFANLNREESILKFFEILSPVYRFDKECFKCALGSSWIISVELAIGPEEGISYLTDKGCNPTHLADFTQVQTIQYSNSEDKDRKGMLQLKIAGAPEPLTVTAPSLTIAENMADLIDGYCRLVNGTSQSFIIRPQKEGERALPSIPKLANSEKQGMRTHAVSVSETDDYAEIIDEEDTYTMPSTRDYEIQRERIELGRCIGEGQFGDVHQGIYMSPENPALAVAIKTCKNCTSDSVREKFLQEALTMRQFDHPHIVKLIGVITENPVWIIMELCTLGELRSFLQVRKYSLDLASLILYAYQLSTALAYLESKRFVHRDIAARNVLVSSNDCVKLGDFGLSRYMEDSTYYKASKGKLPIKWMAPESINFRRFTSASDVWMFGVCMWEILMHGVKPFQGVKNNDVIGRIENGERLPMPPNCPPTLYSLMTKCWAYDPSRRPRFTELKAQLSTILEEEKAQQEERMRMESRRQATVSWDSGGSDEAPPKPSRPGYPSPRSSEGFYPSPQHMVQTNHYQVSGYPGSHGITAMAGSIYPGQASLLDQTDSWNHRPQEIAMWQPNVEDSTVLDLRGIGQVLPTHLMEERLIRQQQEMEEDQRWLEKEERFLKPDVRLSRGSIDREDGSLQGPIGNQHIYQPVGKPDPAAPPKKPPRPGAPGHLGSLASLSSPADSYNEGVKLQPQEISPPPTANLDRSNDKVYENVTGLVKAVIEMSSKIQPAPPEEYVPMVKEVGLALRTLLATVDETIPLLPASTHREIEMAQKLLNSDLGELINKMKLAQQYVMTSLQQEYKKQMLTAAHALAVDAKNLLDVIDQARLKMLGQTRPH

[4] = target: T3, Alpha-2C adrenergic receptor (Homo sapiens) (UniProt P18825); test: Selectivity interaction (GPCR panel (PDSP screen)) EUB0001079a ADRA2C; conditions: at 10 µM
T3 sequence (whole entry): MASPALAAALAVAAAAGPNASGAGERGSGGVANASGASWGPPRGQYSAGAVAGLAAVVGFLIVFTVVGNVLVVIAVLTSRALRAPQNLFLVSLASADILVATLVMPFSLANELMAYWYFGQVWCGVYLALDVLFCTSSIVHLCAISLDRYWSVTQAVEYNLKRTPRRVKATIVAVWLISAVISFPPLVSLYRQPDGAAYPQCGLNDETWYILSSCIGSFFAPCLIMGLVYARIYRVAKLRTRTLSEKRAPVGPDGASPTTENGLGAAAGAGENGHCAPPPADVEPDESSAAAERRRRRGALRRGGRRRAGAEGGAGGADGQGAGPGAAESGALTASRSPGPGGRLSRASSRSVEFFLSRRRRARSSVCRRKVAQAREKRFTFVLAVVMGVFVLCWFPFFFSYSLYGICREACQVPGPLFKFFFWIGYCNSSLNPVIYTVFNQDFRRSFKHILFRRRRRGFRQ

[5] = target: Wee1-like protein kinase (Homo sapiens) (UniProt P30291); test: Selectivity interaction (Kinase panel (KiNativ target engagement assay in Jurkat cells)) EUB0001635a WEE1; assay type: cell-based; conditions: at 1 µM
Wee1-like protein kinase (Homo sapiens), sequence (P30291 whole entry, looked up): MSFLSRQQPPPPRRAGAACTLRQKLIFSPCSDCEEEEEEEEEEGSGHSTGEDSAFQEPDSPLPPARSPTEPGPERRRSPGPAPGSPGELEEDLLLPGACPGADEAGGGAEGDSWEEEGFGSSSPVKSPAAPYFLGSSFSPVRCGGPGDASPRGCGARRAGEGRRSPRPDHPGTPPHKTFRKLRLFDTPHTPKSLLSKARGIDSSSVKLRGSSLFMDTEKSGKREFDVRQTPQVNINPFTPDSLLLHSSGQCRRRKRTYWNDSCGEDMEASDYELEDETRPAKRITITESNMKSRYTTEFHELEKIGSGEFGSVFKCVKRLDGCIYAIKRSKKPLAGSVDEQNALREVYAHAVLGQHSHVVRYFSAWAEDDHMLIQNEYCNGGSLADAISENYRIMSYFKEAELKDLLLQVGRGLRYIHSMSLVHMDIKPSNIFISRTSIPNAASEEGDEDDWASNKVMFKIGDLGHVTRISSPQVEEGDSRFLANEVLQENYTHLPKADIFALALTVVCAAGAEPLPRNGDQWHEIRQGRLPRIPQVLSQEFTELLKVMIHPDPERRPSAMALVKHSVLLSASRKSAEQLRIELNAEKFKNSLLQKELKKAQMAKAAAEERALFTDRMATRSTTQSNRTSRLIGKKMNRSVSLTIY

[6] = target: T4, Bone morphogenetic protein receptor type-2 (Homo sapiens) (UniProt Q13873); test: Selectivity interaction (Kinase panel (DSF assay)) EUB0001558a BMPR2
T4 sequence (whole entry): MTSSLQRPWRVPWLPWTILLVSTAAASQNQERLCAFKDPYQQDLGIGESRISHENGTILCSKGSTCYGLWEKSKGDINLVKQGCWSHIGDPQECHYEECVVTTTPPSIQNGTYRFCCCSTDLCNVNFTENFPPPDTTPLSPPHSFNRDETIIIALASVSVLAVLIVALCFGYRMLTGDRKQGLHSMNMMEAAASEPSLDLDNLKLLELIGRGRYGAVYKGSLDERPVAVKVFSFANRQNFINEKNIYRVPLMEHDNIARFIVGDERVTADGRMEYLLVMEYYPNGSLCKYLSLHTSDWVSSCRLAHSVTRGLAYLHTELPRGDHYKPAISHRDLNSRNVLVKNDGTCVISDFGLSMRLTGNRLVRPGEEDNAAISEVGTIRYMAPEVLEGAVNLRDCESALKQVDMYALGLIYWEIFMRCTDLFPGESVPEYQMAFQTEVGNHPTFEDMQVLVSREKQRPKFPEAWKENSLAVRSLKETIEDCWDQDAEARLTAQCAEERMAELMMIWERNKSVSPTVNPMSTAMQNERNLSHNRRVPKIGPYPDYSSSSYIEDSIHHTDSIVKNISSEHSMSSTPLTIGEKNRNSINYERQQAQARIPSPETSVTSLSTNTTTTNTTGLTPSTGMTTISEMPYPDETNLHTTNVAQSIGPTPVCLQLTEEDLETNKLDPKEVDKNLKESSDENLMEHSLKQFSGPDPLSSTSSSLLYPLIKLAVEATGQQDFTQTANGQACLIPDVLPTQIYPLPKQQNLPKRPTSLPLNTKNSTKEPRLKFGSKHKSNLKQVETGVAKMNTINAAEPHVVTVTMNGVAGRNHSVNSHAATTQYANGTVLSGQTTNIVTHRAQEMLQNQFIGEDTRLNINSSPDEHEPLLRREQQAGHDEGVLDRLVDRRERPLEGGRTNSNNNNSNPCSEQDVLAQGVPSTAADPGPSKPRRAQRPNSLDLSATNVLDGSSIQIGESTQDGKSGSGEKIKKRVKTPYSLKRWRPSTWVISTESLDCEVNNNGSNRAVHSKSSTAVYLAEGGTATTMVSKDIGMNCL

Platelet-derived growth factor receptor beta, sequence (P09619 whole entry, canonical isoform): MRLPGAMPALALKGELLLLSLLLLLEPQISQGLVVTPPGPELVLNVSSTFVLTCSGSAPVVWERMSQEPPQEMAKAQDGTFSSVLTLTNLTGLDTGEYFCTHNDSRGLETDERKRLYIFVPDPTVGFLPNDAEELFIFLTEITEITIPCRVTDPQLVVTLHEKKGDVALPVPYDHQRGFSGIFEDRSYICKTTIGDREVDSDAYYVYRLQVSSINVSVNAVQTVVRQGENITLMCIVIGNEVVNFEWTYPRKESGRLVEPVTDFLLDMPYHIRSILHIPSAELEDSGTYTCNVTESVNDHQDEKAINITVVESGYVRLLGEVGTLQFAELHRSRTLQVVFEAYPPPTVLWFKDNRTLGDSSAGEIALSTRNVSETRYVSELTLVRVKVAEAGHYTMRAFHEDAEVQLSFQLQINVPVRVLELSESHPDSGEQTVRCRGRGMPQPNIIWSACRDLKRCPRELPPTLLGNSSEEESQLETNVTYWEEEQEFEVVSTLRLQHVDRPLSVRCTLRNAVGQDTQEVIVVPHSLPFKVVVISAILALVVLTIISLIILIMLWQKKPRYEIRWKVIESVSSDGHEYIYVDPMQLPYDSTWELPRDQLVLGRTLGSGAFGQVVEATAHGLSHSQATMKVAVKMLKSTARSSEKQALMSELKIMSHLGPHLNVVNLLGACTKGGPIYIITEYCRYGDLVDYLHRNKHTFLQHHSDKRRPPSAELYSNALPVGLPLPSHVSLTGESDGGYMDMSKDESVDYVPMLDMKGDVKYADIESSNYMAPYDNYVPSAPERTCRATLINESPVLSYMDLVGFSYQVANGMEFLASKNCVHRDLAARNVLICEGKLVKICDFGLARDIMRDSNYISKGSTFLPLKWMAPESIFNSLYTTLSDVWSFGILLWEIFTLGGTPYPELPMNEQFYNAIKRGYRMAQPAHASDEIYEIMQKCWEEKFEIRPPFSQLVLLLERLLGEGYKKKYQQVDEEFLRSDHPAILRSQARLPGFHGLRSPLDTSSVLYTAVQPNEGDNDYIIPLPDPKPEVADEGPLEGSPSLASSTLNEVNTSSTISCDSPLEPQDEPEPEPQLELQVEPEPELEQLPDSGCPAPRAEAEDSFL

`CC[C@@H]1[C@H](F)C(=O)N[C@@H]1COc1nccc2cc(C(N)=O)c(OC)cc12` [ZIMLOVISERTIB] showed a % of inhibition [1] of -2.22%.
With `COCC(=O)NC/C=C/c1ccc2ncnc(Nc3ccc(Oc4ccc(C)nc4)c(C)c3)c2c1` [CP-724714] the % of control [2] was 86%.
Molecule `COc1cc(N(C)c2ccnc3ccc(C(F)(F)F)cc23)cc(OC)c1OC` has a % binding [3] of 92% and a % binding (Focal adhesion kinase 1) of 100%.
`Nc1cnc(N2CCc3cc(S(=O)(=O)Nc4c(F)cc(Cl)cc4F)cc(N4CCCC4=O)c32)nc1` [TP-020n] was tested, and the % of inhibition [4] was -14.3%.
For `C=CC(=O)Nc1ccc(C(=O)Nc2[nH]nc3c2CN(C(=O)N[C@H](CN(C)C)c2ccccc2)C3(C)C)cc1`, the % of engagement [5] was 24%.
For `CC(C)(O)[C@H](F)CN1Cc2cc(NC(=O)c3cnn4cccnc34)c(N3CCOCC3)cc2C1=O`, the dTM [6] was 2.1 K.
